Measurements published in ChEMBL document CHEMBL1201862, “PubChem BioAssay data set” (2004).
Activity calls are given as the source filed them.

Tests used:
[1] = biological target: T1, Carboxy-terminal domain RNA polymerase II polypeptide A small phosphatase 1 (Homo sapiens, UniProt Q9GZU7); assay: inhibitors of CTDSP1, concentration-response testing, biochemical assay, absorbance-based, actives from ultra-high-throughput screening (AID 540297); assay type: functional
T1 sequence (Q9GZU7 whole entry): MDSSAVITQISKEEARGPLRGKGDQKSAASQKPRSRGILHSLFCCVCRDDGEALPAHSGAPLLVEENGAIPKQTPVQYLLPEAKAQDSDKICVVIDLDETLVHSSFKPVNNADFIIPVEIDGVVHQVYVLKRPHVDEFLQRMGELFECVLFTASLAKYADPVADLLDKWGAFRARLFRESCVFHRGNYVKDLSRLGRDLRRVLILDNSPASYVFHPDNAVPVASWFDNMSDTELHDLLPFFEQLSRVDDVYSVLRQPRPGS

[2] = growth suppression of beta-catenin-knockout colon cells, dose response, cell-based, HCT116, human colon tumor (AID 1045); assay type: functional;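 further: HCT116 colon tumor cells with beta catenin knocked out; cells exposed to compound for 60 hours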
[3] = growth suppression of PTEN-null colon cells, dose response, cell-based, HCT116 PTEN knockout (AID 1047); assay type: functional;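 further: HCT116 colon tumor cells with PTEN knocked out; cells exposed to compound for 60 hours before readout; potency for loss of cell viability measured by luminescence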
[4] = cytotoxicity toward NIH3T3 fibroblasts, dose response, counter-screen, cell-based, ATP luminescence, mouse fibroblasts (AID 2010); assay type: functional;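 further: cells exposed to compound for about 90 hours before reading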
[5] = biological target: T2, High affinity choline transporter 1 (Homo sapiens, UniProt Q9GZV3); assay: CHT inhibitors, dose response, cell-based, 5-point CRC, membrane potential dye (AID 504840); assay type: functional
T2 sequence (Q9GZV3 whole entry): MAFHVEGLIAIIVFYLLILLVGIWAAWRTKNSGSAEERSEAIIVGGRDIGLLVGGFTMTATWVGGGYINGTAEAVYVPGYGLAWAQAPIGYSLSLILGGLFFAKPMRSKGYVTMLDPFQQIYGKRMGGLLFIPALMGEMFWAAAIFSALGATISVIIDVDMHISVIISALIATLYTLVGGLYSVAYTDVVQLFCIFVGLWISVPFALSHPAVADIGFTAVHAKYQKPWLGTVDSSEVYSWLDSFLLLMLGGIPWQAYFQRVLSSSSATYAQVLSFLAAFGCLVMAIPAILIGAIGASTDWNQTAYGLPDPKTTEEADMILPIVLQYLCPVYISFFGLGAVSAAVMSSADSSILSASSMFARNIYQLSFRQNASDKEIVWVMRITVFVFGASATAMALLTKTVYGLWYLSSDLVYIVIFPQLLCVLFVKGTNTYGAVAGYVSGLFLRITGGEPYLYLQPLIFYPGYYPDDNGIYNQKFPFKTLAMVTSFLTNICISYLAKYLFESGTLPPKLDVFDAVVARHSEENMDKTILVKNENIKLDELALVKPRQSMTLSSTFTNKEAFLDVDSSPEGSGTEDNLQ

[6] = inhibitors of intracellular T. cruzi replication, confirmation, NIH3T3 host cells, beta-gal luminescence (AID 2044); assay type: functional, cell-based;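 further: intracellular parasites grown in NIH/3T3 mouse fibroblasts as host cells; luminescent beta-galactosidase reporter signal from transgenic T. cruzi replicating inside host cells; inhibitors lower the luminescence signal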
[7] = biological target: T3, Corticotropin-releasing factor receptor 2/Corticotropin-releasing factor-binding protein (Homo sapiens, UniProt P24387+Q13324); assay: Dose Response confirmation of uHTS hits for small molecule antagonists of the CRF-binding protein and CRF-R2 receptor complex.; assay type: functional; details: read-out: IC50_Mean
T3 sequence (Q13324 whole entry): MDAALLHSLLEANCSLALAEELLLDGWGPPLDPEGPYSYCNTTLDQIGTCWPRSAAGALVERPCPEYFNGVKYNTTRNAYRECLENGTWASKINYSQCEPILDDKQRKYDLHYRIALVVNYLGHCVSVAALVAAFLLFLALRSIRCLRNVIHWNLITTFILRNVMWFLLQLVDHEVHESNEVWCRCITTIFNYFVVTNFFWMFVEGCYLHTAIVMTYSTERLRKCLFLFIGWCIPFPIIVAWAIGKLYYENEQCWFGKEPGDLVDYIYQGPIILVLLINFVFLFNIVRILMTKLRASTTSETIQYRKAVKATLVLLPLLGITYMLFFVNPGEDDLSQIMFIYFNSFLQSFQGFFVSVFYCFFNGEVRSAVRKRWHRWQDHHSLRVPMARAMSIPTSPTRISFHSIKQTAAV
T3 sequence (P24387 whole entry): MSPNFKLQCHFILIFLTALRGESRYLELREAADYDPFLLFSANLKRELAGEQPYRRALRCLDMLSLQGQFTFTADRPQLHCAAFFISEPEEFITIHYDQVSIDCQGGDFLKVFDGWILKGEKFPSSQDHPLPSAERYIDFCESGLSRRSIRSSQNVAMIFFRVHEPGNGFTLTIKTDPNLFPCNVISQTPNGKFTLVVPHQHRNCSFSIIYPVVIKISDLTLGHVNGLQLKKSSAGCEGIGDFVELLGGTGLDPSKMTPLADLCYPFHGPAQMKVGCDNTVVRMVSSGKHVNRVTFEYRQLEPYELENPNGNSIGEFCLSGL

[8] = biological target: T3, Corticotropin-releasing factor receptor 2/Corticotropin-releasing factor-binding protein; assay: activators of CRF receptor 2 with binding protein – uHTS hits, confirmation (AID 602473); assay type: functional; details: read-out: EC50_Mean
Cytochrome P450 2C9 = Cytochrome P450 2C9 (Homo sapiens, UniProt P11712)
Sequence of Cytochrome P450 2C9 (P11712 whole entry): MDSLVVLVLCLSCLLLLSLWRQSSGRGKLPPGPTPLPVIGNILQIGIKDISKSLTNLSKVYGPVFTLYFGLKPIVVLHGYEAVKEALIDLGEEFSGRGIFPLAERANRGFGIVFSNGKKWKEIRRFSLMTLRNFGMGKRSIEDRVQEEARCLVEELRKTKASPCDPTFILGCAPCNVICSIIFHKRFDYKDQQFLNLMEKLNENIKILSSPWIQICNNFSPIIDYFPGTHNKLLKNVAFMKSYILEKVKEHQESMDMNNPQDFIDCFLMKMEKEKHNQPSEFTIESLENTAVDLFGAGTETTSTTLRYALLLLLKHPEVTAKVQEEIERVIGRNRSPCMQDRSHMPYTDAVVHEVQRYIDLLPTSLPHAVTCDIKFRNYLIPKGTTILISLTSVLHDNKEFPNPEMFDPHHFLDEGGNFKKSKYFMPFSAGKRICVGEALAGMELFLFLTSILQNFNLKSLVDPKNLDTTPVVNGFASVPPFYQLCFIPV

Cytochrome P450 3A4 = Cytochrome P450 3A4 (Homo sapiens, UniProt P08684);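 further: CYP3A4 tested as one member of a cytochrome P450 panel screen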
Sequence of Cytochrome P450 3A4 (P08684 whole entry): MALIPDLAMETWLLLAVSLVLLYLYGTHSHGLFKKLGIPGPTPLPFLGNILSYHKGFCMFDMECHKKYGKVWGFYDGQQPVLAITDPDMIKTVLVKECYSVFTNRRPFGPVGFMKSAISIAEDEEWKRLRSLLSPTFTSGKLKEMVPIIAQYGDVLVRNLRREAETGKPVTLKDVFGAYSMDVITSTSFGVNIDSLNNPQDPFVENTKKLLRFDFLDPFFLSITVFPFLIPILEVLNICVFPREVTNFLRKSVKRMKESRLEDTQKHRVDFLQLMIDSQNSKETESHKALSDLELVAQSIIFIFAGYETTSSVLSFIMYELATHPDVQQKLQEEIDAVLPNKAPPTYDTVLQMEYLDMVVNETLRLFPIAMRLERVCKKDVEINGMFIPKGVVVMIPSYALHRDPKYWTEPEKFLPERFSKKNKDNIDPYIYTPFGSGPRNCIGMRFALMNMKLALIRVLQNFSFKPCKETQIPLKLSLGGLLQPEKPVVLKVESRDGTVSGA

Cytochrome P450 2D6 = Cytochrome P450 2D6 (Homo sapiens, UniProt P10635);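 further: CYP2D6 member of a cytochrome P450 panel assay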
Sequence of Cytochrome P450 2D6 (P10635 whole entry): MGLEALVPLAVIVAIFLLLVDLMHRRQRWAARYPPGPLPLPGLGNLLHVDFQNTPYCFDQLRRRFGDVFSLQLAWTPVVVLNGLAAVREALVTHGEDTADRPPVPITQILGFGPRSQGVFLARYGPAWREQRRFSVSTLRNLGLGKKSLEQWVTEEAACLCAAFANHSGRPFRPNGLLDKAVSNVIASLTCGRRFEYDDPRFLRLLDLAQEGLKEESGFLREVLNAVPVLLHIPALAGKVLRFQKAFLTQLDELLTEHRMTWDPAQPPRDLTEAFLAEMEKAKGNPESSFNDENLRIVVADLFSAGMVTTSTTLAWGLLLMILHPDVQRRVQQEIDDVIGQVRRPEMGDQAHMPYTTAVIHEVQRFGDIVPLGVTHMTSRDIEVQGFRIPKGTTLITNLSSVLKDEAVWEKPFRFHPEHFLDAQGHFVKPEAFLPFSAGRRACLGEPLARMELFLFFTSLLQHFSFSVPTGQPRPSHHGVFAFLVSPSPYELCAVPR

Cytochrome P450 2C19 = Cytochrome P450 2C19 (Homo sapiens, UniProt P33261); assay: Cytochrome panel assay with activity outcomes. Panel member name: p450-cyp2c19 Compounds with AC50 equal or less than 10 uM are considered active; assay type: functional; details: read-out: AC50
Sequence of Cytochrome P450 2C19 (P33261 whole entry): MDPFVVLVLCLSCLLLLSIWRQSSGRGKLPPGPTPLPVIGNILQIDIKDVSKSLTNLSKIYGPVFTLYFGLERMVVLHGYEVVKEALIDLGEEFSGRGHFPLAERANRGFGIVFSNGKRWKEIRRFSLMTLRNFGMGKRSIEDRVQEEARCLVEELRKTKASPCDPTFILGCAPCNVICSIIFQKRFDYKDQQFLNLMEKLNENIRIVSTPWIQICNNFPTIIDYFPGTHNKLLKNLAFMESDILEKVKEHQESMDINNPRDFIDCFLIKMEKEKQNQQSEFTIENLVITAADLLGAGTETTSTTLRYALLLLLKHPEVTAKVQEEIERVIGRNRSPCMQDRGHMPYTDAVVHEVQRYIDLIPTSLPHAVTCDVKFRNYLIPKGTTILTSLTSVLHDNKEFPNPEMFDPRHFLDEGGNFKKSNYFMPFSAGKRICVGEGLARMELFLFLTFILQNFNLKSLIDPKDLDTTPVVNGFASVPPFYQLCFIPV

[9] = control 3'UTR Renilla luciferase suppression, dose response, counter-screen for Shn3 inhibitor project, cell-based, Clone20-Shn3RL, cherry-picked (AID 624133); assay type: functional
[10] = Shn3 3'UTR reporter inhibitors, dose response, cell-based, Clone20 osteoblasts, firefly luciferase, cherry-picked (AID 624132); assay type: functional;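 further: firefly luciferase luminescence from reporter carrying the Shn3 3'UTR in osteoblasts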
[11] = HepG2 cell cytotoxicity, dose response, cytotoxicity control for Shn3 inhibitor project, CellTiter-Glo, cherry-picked (AID 624134); assay type: functional, cell-based
[12] = NIH-3T3 fibroblast cytotoxicity, dose response, cytotoxicity control, cell-based, fluorescence, Alamar Blue, secondary assay (AID 2327); assay type: functional;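 further: NIH-3T3 mouse fibroblasts cultured with fluconazole at 8 µg/mL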
[13] = C. albicans growth with fluconazole, confirmation, fluorescence, retest (AID 2467); assay type: functional, cell-based

Cc1ccn2c(=O)nc(SCC(=O)NCc3ccco3)nc2c1
IC50 [1]: 10.8 µM (active)

O=C(O)CCNc1ccc(Cl)cc1
IC50 [1]: 16.9 µM (active)

COc1ccc(NC(=O)C(C)Sc2nnc3c4c(nc(-c5ccc(OC)cc5)n23)CC(C)(C)OC4)cc1 (centres undefined)
EC50 [2]: 58.9 µM (active) | EC50 [3]: 27 µM (active)

CCOC(=O)N1CCN(C(=O)c2oc3ccc(S(=O)(=O)N4CCCCCC4)cc3c2C)CC1
EC50 [4]: > 60 µM (not active) | IC50 [5]: 13.2 µM (active) | EC50 [6]: 2.02 µM (active)

O=C(NCCCO)C(=O)Nc1cc2c3c(c1)CCN3C(=O)CC2
IC50 [7]: > 47.1 µM (inactive) | EC50 [8]: > 53 µM (inactive)

COCCn1nnnc1C(c1ccccc1)N1CCN(c2ccccc2)CC1 (centres undefined)
IC50 [7]: > 47.1 µM (inactive) | EC50 [8]: > 53 µM (inactive)

O=[N+]([O-])c1ccc2nc(-c3ccccc3)n(OCc3ccc(Cl)cc3)c2c1
IC50 [1]: 10.1 µM (active)

O=C(CNC(=O)c1ccccc1)NCC(=O)OCc1ccc(Cl)cc1
AC50 (Cytochrome P450 2C9): 0.1 µM (inconclusive) | AC50 (Cytochrome P450 3A4): 14.1 µM (inconclusive) | AC50 (Cytochrome P450 2D6): 20 µM (inconclusive) | AC50 (Cytochrome P450 2C19): 20 µM (inconclusive)

Cc1csc(=N)n1CC(=O)N1CCc2ccccc21
IC50 [5]: 13.2 µM (active)

CCc1ccc(N2C(=O)NC(=O)/C(=C\NCCN(CC)CC)C2=O)cc1
AC50 [9]: 27.8 µM (active) | AC50 [10]: > 70 µM (inactive)

N=C(N)SCc1ccccn1
IC50 [5]: 13.2 µM (active)

Cc1ccc(S(=O)(=O)N2C[C@@H]3CCCC[C@@H]3[C@@H](C)[C@H]2c2cn(Cc3ccccc3)c3ncccc23)cc1
AC50 [11]: 2.47 µM (active) | AC50 [9]: 4.12 µM (active) | AC50 [10]: 1.92 µM (active)

Cc1ccc(C2CC2C(=O)NN=C(S)Nc2cccc(Cl)c2)cc1 (centres undefined)
EC50 [12]: > 160 µM (inactive) | IC50 [5]: 15.8 µM (active) | EC50 [13]: > 38 µM (not active)

Cc1nc2cnc(Nc3ccccc3)nc2n(C)c1=O
AC50 (Cytochrome P450 2C9): 20 µM (inconclusive) | AC50 (Cytochrome P450 3A4): 15.8 µM (inconclusive) | AC50 (Cytochrome P450 2D6): 39.8 µM (inconclusive)

Cc1ccc(Cl)cc1NC(=O)CSc1sc2c(O)cc(O)nc2c1C#N
IC50 [1]: 4.49 µM (active)

O=C(c1cccc(NS(=O)(=O)c2ccc(F)c(F)c2)c1)N1CCN(C(c2ccccc2)c2ccccc2)CC1
IC50 [7]: > 47.1 µM (inactive) | EC50 [8]: > 53 µM (inactive)

COc1ccccc1N1CCN(C(=O)C2CCCN(S(=O)(=O)c3ccc4c(c3)CCCN4C(C)=O)C2)CC1 (centres undefined)
AC50 [11]: 50.9 µM (active) | AC50 [9]: 1.15 µM (active) | AC50 [10]: 2.68 µM (active)

CCOc1ccc2nc(O)c(CN(Cc3cccs3)C(CC)c3nnnn3C(C)(C)CC)cc2c1 (centres undefined)
EC50 [2]: 5.11 µM (active) | EC50 [3]: 4.69 µM (active)

CCOc1ccc(C(=O)OCC(=O)Nc2cccnc2Cl)cc1OCC
IC50 [7]: > 47.1 µM (inactive) | EC50 [8]: > 53 µM (inactive)
